From patent publication US10828301B2, “2,4-pyrimidinediamine compounds and their uses” (Rigel Pharmaceuticals, Inc, priority 2002, dated 2020)
pIC50: −log10 of the molar value. Counter-ions that a name gives are not always drawn.

System: cultured human mast cells (CHMC)
Assay: CHMC low cell density IgE activation: tryptase and LTC4 assays
Assay type: cell-based
Conditions: Homo sapiens, Mast cell, Low Density CHMC, anti-IgE activation, hexosaminidase readout; read-out: CHMC anti-IgE Hexos.
Procedure: Pellet CHMC cells (980 rpm, 10 min) and resuspend in pre-warmed MT. Add 65 ul of cells to each 96-well plate. Depending on the degranulation activity for each particular CHMC donor, load 1000-1500 cells/well. Mix four times followed by a 1 hr incubation at 37° C. […] Stimulate cells by adding 25 ul of 6× anti-IgE solution to the appropriate plates. Add 25 ul MT to un-stimulated control wells. Mix twice following addition of the anti-IgE. Incubate at 37° C. for 30 minutes. […] Spin plates at 1000 rpm for 10 min to pellet cells. Transfer 25 ul of supernatant to a 96-well black bottom plate and add 100 ul of freshly diluted tryptase substrate solution to each well. Incubate plates at room temperature for 30 min.
Leukotriene C4 (LTC4) is also quantified using an ELISA kit on appropriately diluted supernatant samples (determined empirically for each donor cell population so that the sample measurement falls within the standard curve) following the supplier's instructions.

Row | pIC50 | Compound
1 | < 5.00 | COCCNc1ncc(F)c(Nc2ccc3c(c2)OCCO3)n1 [Compound R926229, N4-(3,4-Ethylenedioxyphenyl)-5-fluoro-N2-(2-methoxyethyl)-2,4-pyrimidinediamine]
2 | < 5.00 | COc1ccc(CNc2ncc(F)c(Nc3ccc4c(c3)OCCO4)n2)cc1 [Compound R926230, N4-(3,4-Ethylenedioxyphenyl)-5-fluoro-N2-(4-methoxybenzyl)-2,4-pyrimidinediamine]

Same assay, conditions: Homo sapiens, Mast cell, Low Density CHMC, anti-IgE activation, tryptase readout; read-out: CHMC anti-IgE Tryptase

Row | Compound | pIC50
3 | OC(CNc1ncc(F)c(NCC(O)c2ccccc2)n1)c1ccccc1 (stereo not drawn) [Compound R925768, N2,N4-Bis(2-hydroxy-2-phenylethyl)-5-fluoro-2,4-pyrimidinediamine] | < 5.00
4 | Fc1cnc(NCc2ccco2)nc1NCc1ccco1 [Compound R925769, N2,N4-Bis(furfuryl)-5-fluoro-2,4-pyrimidinediamine] | < 5.00
5 | O=C(O)c1cc2cc(Nc3ncc(F)c(Nc4cccc(O)c4)n3)ccc2o1 [Compound R926478, N2-(2-Carboxybenzofuran-5-yl)-5-fluoro-N4-(3-hydroxyphenyl)-2,4-pyrimidinediamine] | < 5.00
6 | O=C(O)c1cc2cc(Nc3ncc(F)c(Nc4cccc(O)c4)n3)ccc2[nH]1 [Compound R926479, N2-(2-Carboxyindol-5-yl)-5-fluoro-N4-(3-hydroxyphenyl)-2,4-pyrimidinediamine] | < 5.00
7 | O=C(O)c1cc2cc(Nc3ncc(F)c(Nc4ccc5c(c4)OCCO5)n3)ccc2o1 [Compound R926698, N4-(3,4-Ethylenedioxyphenyl)-5-fluoro-N2-(2-carboxybenzofuran-5-yl)-2,4-pyrimidinediamine] | < 5.00
8 | Cc1onc(-c2ccccc2)c1Nc1ncc(F)c(Nc2ccc3c(c2)OCCO3)n1 [Compound R926743, N4-(3,4-Ethylenedioxyphenyl)-5-fluoro-N2-(3-phenyl-5-methylisoxazol-4-yl)-2,4-pyrimidinediamine] | < 5.00
9 | Cc1noc(C)c1Nc1ncc(F)c(Nc2ccc3c(c2)OCCO3)n1 [Compound R926744, N4-(3,4-Ethylenedioxyphenyl)-5-fluoro-N2-(3,5-dimethylisoxazol-4-yl)-2,4-pyrimidinediamine] | < 5.00
10 | CCOC(=O)C1CCN(C(=O)c2cccc(Nc3ncc(F)c(Nc4ccc5cc[nH]c5c4)n3)c2)CC1 [Compound R926935, N2-[3-[[4-(Ethoxycarbonyl)piperidino]carbonyl]phenyl]-5-fluoro-N4-[(1H)-indol-6-yl]-2,4-pyrimidinediamine] | 5.35
11 | CCOC(=O)C1CCN(C(=O)c2cccc(Nc3nc(Nc4cccc(O)c4)ncc3F)c2)CC1 [Compound R926940, N4-[3-[[4-(Ethoxycarbonyl)piperidino]carbonyl]phenyl]-5-fluoro-N2-(3-hydroxyphenyl)-2,4-pyrimidinediamine] | 5.11
12 | CCOC1CCCc2ccc(Nc3nc(Nc4cccc(O)c4)ncc3F)cc21 (stereo not drawn) [Compound R926942, N4-(1-Ethoxy-1,2,3,4-tetrahydronaphthalen-7-yl)-5-fluoro-N2-(3-hydroxyphenyl)-2,4-pyrimidinediamine] | 5.32
13 | COC(=O)c1cc(Nc2ncc(F)c(Nc3ccc(OC)c(C(=O)OC)c3)n2)ccc1OC [Compound R945066, N2,N4-Bis(4-methoxy-3-methoxycarbonylphenyl)-5-fluoro-2,4-pyrimidinediamine] | 5.28
14 | COc1ccc(Nc2ncc(F)c(Nc3ccc(OC)c(C(=O)O)c3)n2)cc1C(=O)O [Compound R945067, N2,N4-Bis(3-carboxy-4-methoxyphenyl)-5-fluoro-2,4-pyrimidinediamine] | < 5.00
15 | COc1cc(Nc2ncc(F)c(Nc3ccc(C(=O)O)c(OC)c3)n2)ccc1C(=O)O [Compound R945068, N2,N4-Bis(4-carboxy-3-methoxyphenyl)-5-fluoro-2,4-pyrimidinediamine] | < 5.00
16 | Nc1cccc(Nc2ccnc(Nc3cccc(N)c3)n2)c1 [Compound R950109, N2,N4-Bis(3-aminophenyl)-2,4-pyrimidinediamine] | 5.10
17 | Nc1ccc(Nc2ncc(F)c(Nc3ccc(N)cc3)n2)cc1 [Compound R950121, N2,N4-Bis(4-aminophenyl)-5-fluoro-2,4-pyrimidinediamine Hydrogen Chloride Salt] | 5.37

Results, then the compound that gave them:

Row | pIC50 | Compound
18 | 5.44 | CCOC(=O)C1CCN(C(=O)c2cccc(Nc3ncc(F)c(Nc4cccc(O)c4)n3)c2)CC1 [Compound R926939, N2-[3-[[4-(Ethoxycarbonyl)piperidino]carbonyl]phenyl]-5-fluoro-N4-(3-hydroxyphenyl)-2,4-pyrimidinediamine]
19 | 5.45 | Cc1ccc(CNc2ncc(F)c(Nc3ccc4c(c3)OCCO4)n2)cc1Cl [Compound R908696, N2-(3-chloro-4-methylbenzyl)-N4-(3,4-ethylenedioxyphenyl)-5-fluoro-2,4-pyrimidinediamine]
20 | 5.55 | CCOC(=O)c1cnc(Nc2ccc3c(c2)OCCO3)nc1Nc1ccc2c(c1)OCCO2 [Compound R926252, N2,N4-Bis(3,4-ethylenedioxyphenyl)-5-ethoxycarbonyl-2,4-pyrimidinediamine]
21 | 5.61 | Cc1ccc(Nc2nc(Nc3cccc(O)c3)ncc2F)nc1 [Compound R927017, 5-Fluoro-N2-(3-hydroxyphenyl)-N4-(5-methylpyridin-2-yl)-2,4-pyrimidinediamine]
22 | 5.62 | CN1C(=O)COc2ccc(Nc3nc(Nc4cccc(O)c4)ncc3F)cc21 [Compound R908709, 5-Fluoro-N2-(3-hydroxyphenyl)-N4-(N-methyl-1,4-benzoxazin-3-on-6-yl)-2,4-pyrimidinediamine]
23 | 5.63 | CC(C)Oc1ccc(Nc2ncc(F)c(Nn3cccc3)n2)cc1 [Compound R935276, 5-Fluoro-N2-(4-isopropoxyphenyl)-N4-(1H-pyrrol-1-yl)-2,4-pyrimidinediamine]
24 | 5.76 | COc1ccc(Nc2nc(Nc3cccc(O)c3)ncc2F)c(OC)n1 [Compound R926887, N4-(2,6-Dimethoxypyridin-3-yl)-5-fluoro-N2-(3-hydroxyphenyl)-2,4-pyrimidinediamine]
25 | 5.84 | Oc1cccc(Nc2ncc(F)c(Nc3ccc(Cl)nc3)n2)c1 [Compound R927018, N4-(6-Chloropyridin-3-yl)-5-fluoro-N2-(3-hydroxyphenyl)-2,4-pyrimidinediamine]
26 | 5.93 | Oc1cccc(Nc2ncc(F)c(Nc3ccc4ncccc4c3)n2)c1 [Compound R927019, 5-Fluoro-N2-(3-hydroxyphenyl)-N4-(quinolin-6-yl)-2,4-pyrimidinediamine]
27 | 6.05 | COC(=O)C1Cc2cc(Nc3ncc(F)c(Nc4ccc(OC)nc4OC)n3)ccc2O1 (racemic) [Compound R927032, (±)-N2-(2,3-Dihydro-2-methoxycarbonylbenzofuran-5-yl)-N4-(2,6-dimethoxypyridin-3-yl)-5-fluoro-2,4-pyrimidinediamine]
28 | 6.15 | CC(C)(CO)c1ccc(Nc2nc(Nc3ccc4c(c3)OCCO4)ncc2F)cc1 [Compound R935149, N2-(3,4-Ethylenedioxyphenyl)-N4-[4-(2-hydroxy-1,1-dimethylethyl)phenyl]-5-fluoro-2,4-pyrimidinediamine]

Same assay, conditions: Low Density CHMC, anti-IgE activation, tryptase readout; read-out: CHMC anti-IgE Tryptase

Row | pIC50 | Compound
29 | 5.85 | CNC(=O)COc1cccc(Nc2ncc(F)c(Nc3cc(C)ccn3)n2)c1 [Compound R927016, 5-Fluoro-N2-[3-(N-methylamino)carbonylmethyleneoxyphenyl]-N4-(4-methylpyridin-2-yl)-2,4-pyrimidinediamine]
30 | < 5.00 | O=C(O)Cc1cccc(Nc2ncc(F)c(Nc3cccc(CC(=O)O)c3)n2)c1 [Compound R935117]
